From article PMC8493129, “Design and Synthesis of New Quinoxaline Derivatives as Potential Histone Deacetylase Inhibitors Targeting Hepatocellular Carcinoma: In Silico, In Vitro, and SAR Studies” (Frontiers in Chemistry, 2021) come the findings set out here.

Series [1] deals with HuH-7 liver cancer cell line. The series is described as follows: Anti-proliferative activity (MTT / SRB assay), HuH-7. Type of series: cell-based, human. As to conditions: Homo sapiens, mean of three separate experiments. Here is the method:
(§1) The new quinoxaline derivatives of the five series: 6, 7, 8, 9, and 10 were evaluated for their potential anti-proliferative activity against two liver cancer cell lines (HepG-2 and HuH-7) obtained from the American Type Culture Collection.
Background: The SRB assay estimates cell density from bound dye.

The test system of series [2] is HepG-2 liver cancer cell line. The series is described as follows: Anti-proliferative activity (MTT / SRB assay), HepG-2. Type of series: cell-based, human. The note with it: Homo sapiens, HepG2; HepG-2; mean of three separate experiments. How it is done:
as §1

For series [3], the target named is HDAC1 (Homo sapiens, UniProt Q13547). The series is described as follows: Histone deacetylase inhibition, homogeneous fluorescence release assay.
For series [4], the target named is HDAC4 (Homo sapiens, UniProt P56524). The description is as above.
Series [5] relates to Bax. The series is described as follows: Apoptotic marker level (Bax) in HepG-2 cells. Type of series: cell-based, human. The note with it: control 24.37 pg/ml. Here is the method: (§2) The method was performed in detail as previously explained ([Eliaa et al., 2020]).
The test system of series [6] is Bcl-2. The series is described as follows: Anti-apoptotic marker level (Bcl-2) in HepG-2 cells. Type of series: cell-based, human. As to conditions: control 5.048 pg/ml. How it is done:
as §2

For series [7], the target named is T1, HDAC6 (Homo sapiens, UniProt Q9UBN7).
T1 sequence (Q9UBN7 1-1215): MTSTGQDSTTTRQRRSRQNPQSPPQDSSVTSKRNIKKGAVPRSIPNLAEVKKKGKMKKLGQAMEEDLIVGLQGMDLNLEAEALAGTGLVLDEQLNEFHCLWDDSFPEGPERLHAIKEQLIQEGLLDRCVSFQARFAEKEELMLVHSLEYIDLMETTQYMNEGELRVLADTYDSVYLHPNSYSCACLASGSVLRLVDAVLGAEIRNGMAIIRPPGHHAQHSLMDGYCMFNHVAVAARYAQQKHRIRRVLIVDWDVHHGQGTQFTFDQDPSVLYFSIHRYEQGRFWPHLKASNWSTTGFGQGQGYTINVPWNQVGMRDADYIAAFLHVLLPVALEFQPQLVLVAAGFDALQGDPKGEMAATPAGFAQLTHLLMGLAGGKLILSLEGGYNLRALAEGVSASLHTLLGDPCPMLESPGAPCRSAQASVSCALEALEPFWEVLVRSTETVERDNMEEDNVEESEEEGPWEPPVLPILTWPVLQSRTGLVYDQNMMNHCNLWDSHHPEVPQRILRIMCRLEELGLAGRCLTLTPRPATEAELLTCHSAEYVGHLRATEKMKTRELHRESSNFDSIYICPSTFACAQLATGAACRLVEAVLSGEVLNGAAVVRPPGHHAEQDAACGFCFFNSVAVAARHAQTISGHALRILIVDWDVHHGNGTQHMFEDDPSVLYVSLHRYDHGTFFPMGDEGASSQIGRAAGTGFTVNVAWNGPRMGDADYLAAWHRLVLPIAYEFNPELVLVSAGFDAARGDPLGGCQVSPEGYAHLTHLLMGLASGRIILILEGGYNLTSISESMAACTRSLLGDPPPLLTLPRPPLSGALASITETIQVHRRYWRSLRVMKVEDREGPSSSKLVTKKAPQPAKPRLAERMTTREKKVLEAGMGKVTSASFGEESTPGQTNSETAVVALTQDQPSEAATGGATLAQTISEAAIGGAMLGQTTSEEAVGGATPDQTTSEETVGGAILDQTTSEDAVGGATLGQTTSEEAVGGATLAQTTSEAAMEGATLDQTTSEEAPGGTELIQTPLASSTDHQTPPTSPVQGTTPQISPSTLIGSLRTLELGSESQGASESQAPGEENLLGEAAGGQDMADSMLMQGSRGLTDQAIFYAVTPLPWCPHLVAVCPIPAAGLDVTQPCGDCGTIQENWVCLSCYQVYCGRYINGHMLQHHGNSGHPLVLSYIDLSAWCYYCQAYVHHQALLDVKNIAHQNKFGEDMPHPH
The series is described as follows: Histone deacetylase inhibition, homogeneous fluorescence release assay.

Series [8] relates to HepG-2 and HuH-7 liver cancer cell lines. The series is described as follows: Anti-proliferative activity, statements covering both cell lines. Type of series: cell-based, human. The note with it: class by IC50 on HepG-2 and HuH-7. Here is the method: as §1

HDAC1, sequence (Q13547 whole entry): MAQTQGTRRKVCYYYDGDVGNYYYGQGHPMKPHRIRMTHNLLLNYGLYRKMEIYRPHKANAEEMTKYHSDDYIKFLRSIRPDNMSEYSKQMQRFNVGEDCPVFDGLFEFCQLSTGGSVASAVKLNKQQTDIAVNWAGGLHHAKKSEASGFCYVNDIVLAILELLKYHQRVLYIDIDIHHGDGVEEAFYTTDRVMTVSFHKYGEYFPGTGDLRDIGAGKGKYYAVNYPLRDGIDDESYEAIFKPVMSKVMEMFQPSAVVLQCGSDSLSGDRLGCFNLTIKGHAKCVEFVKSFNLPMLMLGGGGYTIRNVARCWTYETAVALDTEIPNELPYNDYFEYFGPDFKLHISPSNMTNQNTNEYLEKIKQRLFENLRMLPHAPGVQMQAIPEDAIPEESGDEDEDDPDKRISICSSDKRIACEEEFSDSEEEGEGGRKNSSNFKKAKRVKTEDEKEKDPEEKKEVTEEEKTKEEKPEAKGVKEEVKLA
HDAC4, sequence (P56524 whole entry): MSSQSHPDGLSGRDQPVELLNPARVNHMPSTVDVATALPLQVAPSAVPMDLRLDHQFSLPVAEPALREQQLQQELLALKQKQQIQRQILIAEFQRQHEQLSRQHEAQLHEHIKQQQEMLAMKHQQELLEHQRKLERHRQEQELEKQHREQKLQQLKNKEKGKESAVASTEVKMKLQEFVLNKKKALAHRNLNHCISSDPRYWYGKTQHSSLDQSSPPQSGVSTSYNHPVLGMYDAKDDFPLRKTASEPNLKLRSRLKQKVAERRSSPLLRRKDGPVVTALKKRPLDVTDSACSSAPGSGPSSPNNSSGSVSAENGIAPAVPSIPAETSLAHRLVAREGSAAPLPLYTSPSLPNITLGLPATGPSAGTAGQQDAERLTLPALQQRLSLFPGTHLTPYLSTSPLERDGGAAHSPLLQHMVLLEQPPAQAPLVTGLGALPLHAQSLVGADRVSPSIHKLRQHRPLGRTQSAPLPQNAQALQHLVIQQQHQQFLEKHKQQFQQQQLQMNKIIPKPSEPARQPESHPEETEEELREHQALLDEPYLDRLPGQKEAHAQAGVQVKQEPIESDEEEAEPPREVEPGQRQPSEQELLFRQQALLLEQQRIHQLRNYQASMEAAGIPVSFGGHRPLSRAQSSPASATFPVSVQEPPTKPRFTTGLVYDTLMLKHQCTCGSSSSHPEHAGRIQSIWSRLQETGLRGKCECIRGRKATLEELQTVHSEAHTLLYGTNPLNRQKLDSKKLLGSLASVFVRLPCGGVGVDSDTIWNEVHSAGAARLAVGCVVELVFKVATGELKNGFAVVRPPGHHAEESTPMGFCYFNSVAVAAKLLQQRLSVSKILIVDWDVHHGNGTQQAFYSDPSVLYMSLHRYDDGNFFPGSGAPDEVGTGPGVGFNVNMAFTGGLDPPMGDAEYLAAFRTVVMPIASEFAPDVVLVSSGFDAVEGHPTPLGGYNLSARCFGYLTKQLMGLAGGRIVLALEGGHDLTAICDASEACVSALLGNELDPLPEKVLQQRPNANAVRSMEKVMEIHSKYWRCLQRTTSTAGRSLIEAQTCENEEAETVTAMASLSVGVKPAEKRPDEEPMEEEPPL

In the case of `Clc1nc2ccccc2nc1NN=Cc1ccccc1` [Compound 6 a, 2-(2-Benzylidenehydrazinyl)-3-chloroquinoxaline], the IC50 – broadly, the concentration that inhibits the measured activity by half – stood at 18.2 µM in series [1] and 14.3 µM in series [2].
The corresponding values for `Clc1ccccc1C=NNc1nc2ccccc2nc1Cl` [Compound 6 b, 2-Chloro-3-(2-(2-chlorobenzylidene)hydrazinyl)quinoxaline] are 18.7 µM and 15.8 µM.
Consider `Clc1ccc(C=NNc2nc3ccccc3nc2Cl)c(Cl)c1` [Compound 6 d, 2-Chloro-3-(2-(2,4-dichlorobenzylidene)hydrazinyl)quinoxaline], for which the IC50 in series [3] came out at 3.52 µM; in series [4], 3.25 µM; in series [1], 9.47 µM; in series [2], 6.16 µM; in series [7] it was 4.28 µM. For the same compound, the “Bax” value in series [5] stood at 179.2 pg/mL. For the same compound, in series [6], the “Bcl-2” value was determined as 2.711 pg/mL.
Take `Clc1cccc(Cl)c1C=NNc1nc2ccccc2nc1Cl` [Compound 6 e, 2-Chloro-3-(2-(2,6-dichlorobenzylidene)hydrazinyl)quinoxaline]: the IC50 in series [1] was 17.5 µM; in series [2], 13.5 µM.
Consider `COc1ccccc1C=NNc1nc2ccccc2nc1Cl` [Compound 6 f, 2-Chloro-3-(2-(2-methoxybenzylidene)hydrazinyl)quinoxaline], for which the IC50 is 3.29 µM in series [3]; 3.44 µM in series [4]; 8.52 µM in series [1]; 6.63 µM in series [2]; 5.32 µM in series [7]. In addition, the “Bax” value in series [5] is 185.7 pg/mL. Moreover, the “Bcl-2” value in series [6] came to 2.705 pg/mL.
On to `COc1ccc(C=NNc2nc3ccccc3nc2Cl)cc1OC` [Compound 6 g, 2-Chloro-3-(2-(3,4-dimethoxybenzylidene)hydrazinyl)quinoxaline], for which the IC50 came out at 2.17 µM in series [3]; 1.64 µM in series [4]; 3.05 µM in series [1]; 2.16 µM in series [2]; 3.81 µM in series [7]. Besides, the “Bax” value in series [5] worked out at 247.5 pg/mL. The “Bcl-2” value in series [6] was 1.687 pg/mL.
With `COc1cc(C=NNc2nc3ccccc3nc2Cl)cc(OC)c1OC` [Compound 6 h, 2-Chloro-3-(2-(3,4,5-trimethoxybenzylidene)hydrazinyl)quinoxaline], the results for the 50% inhibitory concentration (IC50) in series [1] and in series [2] were 14.7 µM and 11.8 µM, respectively.
The like results for `O=[N+]([O-])c1cccc(C=NNc2nc3ccccc3nc2Cl)c1` [Compound 6 i, 2-Chloro-3-(2-(3-nitrobenzylidene)hydrazinyl)quinoxaline] were, in that order, 65.7 µM and 63.9 µM.
The corresponding values for `O=[N+]([O-])c1ccc(C=NNc2nc3ccccc3nc2Cl)cc1` [Compound 6 j, 2-Chloro-3-(2-(4-nitrobenzylidene)hydrazinyl)quinoxaline] are 25.8 µM and 15.9 µM.
Turning to `Oc1ccccc1C=NNc1nc2ccccc2nc1Cl` [Compound 6 k, 2-((2-(3-Chloroquinoxalin-2-yl)hydrazono)methyl)phenol], the IC50 is 4.18 µM in series [3]; 3.81 µM in series [4]; 6.52 µM in series [1]; 7.71 µM in series [2]; 6.29 µM in series [7]. Further, in series [5], the “Bax” value is 164.3 pg/mL. In series [6], the “Bcl-2” value was found to be 2.914 pg/mL.
`CN(C)c1ccc(C=NNc2nc3ccccc3nc2Cl)cc1` [Compound 6 l, 4-((2-(3-Chloroquinoxalin-2-yl)hydrazono)methyl)-N,N-dimethylaniline]: the 50% inhibitory concentration (IC50) is 3.29 µM in series [3]; 2.79 µM in series [4]; 9.27 µM in series [1]; 5.39 µM in series [2]; 4.09 µM in series [7]. In addition, the “Bax” value in series [5] amounted to 219.7 pg/mL. Also, the “Bcl-2” value in series [6] came to 2.519 pg/mL.
As to `CC(=NNc1nc2ccccc2nc1Cl)c1ccccc1` [Compound 7 a, 2-Chloro-3-(2-(1-phenylethylidene)hydrazinyl)quinoxaline], the results for the IC50 in series [1] and in series [2] were 37.1 µM and 28.5 µM, respectively.
Regarding `O=C1Nc2ccccc2/C1=N\Nc1nc2ccccc2nc1Cl` [Compound 9, 2-(2-(3-Chloroquinoxalin-2-yl)hydrazono)indolein-3-one], the half-maximal inhibitory concentration (IC50) in series [1] amounted to 16.4 µM; in series [2], 11.6 µM. The “cytotoxic (anti-proliferative) activity class” value in series [8] was “strong (11–20 (strong))”.
In the case of `COc1nc2ccccc2nc1NN=Cc1ccc(Cl)cc1` [Compound 10 a, 2-(2-(4-Chlorobenzylidene)hydrazinyl)-3-methoxyquinoxaline], the half-maximal inhibitory concentration (IC50) in series [1] turned out to be 57.8 µM; in series [2] it was 53.9 µM.
The like results for `COc1nc2ccccc2nc1NN=Cc1ccc(Cl)cc1Cl` [Compound 10 b, 2-(2-(2,4-Dichlorobenzylidene)hydrazinyl)-3-methoxyquinoxaline] were, in that order, 35.2 µM and 32.1 µM.
The corresponding values for `COc1nc2ccccc2nc1NN=Cc1c(Cl)cccc1Cl` [Compound 10 c, 2-(2-(2,6-Dichlorobenzylidene)hydrazinyl)-3-methoxyquinoxaline] are 65.3 µM and 60.5 µM.
The like results for `COc1ccccc1C=NNc1nc2ccccc2nc1OC` [Compound 10 d, 2-Methoxy-3-(2-(2-methoxybenzylidene)hydrazinyl)quinoxaline] were, in that order, 27.3 µM and 28.6 µM.
For the compound `COc1ccc(C=NNc2nc3ccccc3nc2OC)cc1OC` [Compound 10 e, 2-(2-(3,4-Dimethoxybenzylidene)hydrazinyl)-3-methoxyquinoxaline], the half-maximal inhibitory concentration (IC50) in series [1] stood at 50.6 µM; in series [2], 55.7 µM.
As for `COc1cc(C=NNc2nc3ccccc3nc2OC)cc(OC)c1OC` [Compound 10 f, 2-Methoxy-3-(2-(3,4,5-trimethoxybenzylidene)hydrazinyl)quinoxaline], the IC50 in series [1] was 48.8 µM; in series [2], 56.9 µM.
The corresponding values for `COc1nc2ccccc2nc1NN=Cc1ccc([N+](=O)[O-])cc1` [Compound 10 g, 2-Methoxy-3-(2-(4-nitrobenzylidene)hydrazinyl)quinoxaline] are 19.1 µM and 13 µM.
Consider `COc1nc2ccccc2nc1NN=Cc1ccccc1O` [Compound 10 h, 2-((2-(3-Methoxyquinoxalin-2-yl)hydrazono)methyl)phenol], for which the 50% inhibitory concentration (IC50) is 3.54 µM in series [3]; 3.15 µM in series [4]; 6.72 µM in series [1]; 5.56 µM in series [2]; 7.21 µM in series [7]. Moreover, in series [5], the “Bax” value was found to be 205.4 pg/mL. Moreover, the “Bcl-2” value in series [6] was determined as 2.673 pg/mL.
Turning to `COc1nc2ccccc2nc1NN=Cc1ccc(N(C)C)cc1` [Compound 10 i, 4-((2-(3-Methoxyquinoxalin-2-yl)hydrazono)methyl)-N,N-dimethylaniline], the values for the IC50 in series [1] and in series [2] were 22.7 µM and 23 µM, respectively.
On to `COc1nc2ccccc2nc1NN=Cc1c(O)ccc2ccccc12` [Compound 11, 1-((2-(3-Methoxyquinoxalin-2-yl)hydrazono)methyl)naphthalen-2-ol], for which the IC50 in series [1] worked out at 20.3 µM; in series [2], 18.5 µM. Further, the “cytotoxic (anti-proliferative) activity class” value in series [8] is “strong (11–20 (strong))”.
As to `COc1cccc2c1C(=O)c1c(O)c3c(c(O)c1C2=O)C[C@@](O)(C(=O)CO)C[C@@H]3O[C@H]1C[C@H](N)[C@H](O)[C@H](C)O1` [Doxorubicin, reference compound], the IC50 was 9.2 ± 0.65 µM in series [1] and 8.25 µM in series [2].
